Where a name gives a salt, the structure may show the parent alone.
Each molecule was assayed against cloned human NR1/NR2B ion channels (Homo sapiens (Human), UniProt Q05586+Q13224) (assay: HNR2BC: effects of test articles on cloned human NR1/NR2B ion channels expressed in mammalian cells (FLIPR calcium flux)). Conditions: cloned human NR1/NR2B, Table 5.
Format: cell-based
Method: HNR2BC: Effects of Test Articles on Cloned Human NR1/NR2B Ion Channels Expressed in Mammalian Cells
NMDA receptors are ion channels that are highly permeable to Ca^2+ ions, rendering it possible to monitor NMDA receptor function using cell-based calcium flux assay. In this assay, co-agonists glutamate and glycine are added to cells heterologously expressing human GluN1/GluN2B NMDA receptors to initiate cellular Ca^2+ influx. The time course of the changes in intracellular calcium is measured using a fluorescent dye and a FLIPR (Fluorometric Imaging Plate Reader) device.
Twenty four hours before measurements, the expression of the NMDA receptors in the stable cell line is induced with Tet-On inducible system in the presence of a non-selective NMDA receptor blocker. On the day of the experiment, cell culture media is carefully washed and the cells are loaded with Calcium 5 Dye Kit (Molecular Devices) in dye loading buffer containing 137 mM NaCl, 4 mM KCl, 2 mM CaCl2, 0.5 mM MgCl2, 10 mM HEPES and 5 mM D-glucose; pH 7.4. After 1 h incubation at the room temperature, the dye is washed away with the assay buffer (137 mM NaCl, 4 mM KCl, 2 mM CaCl2, 0.01 mM EDTA, 10 mM HEPES and 5 mM D-glucose; pH 7.4) In the FLIPR TETRA reader, various concentrations of the test compounds are added to the cells for 5 min while fluorescence is monitored to detect potential agonist activity. Next, co-agonists, glutamate and glycine are added for another 5 minutes. The concentration of glutamate corresponding to ˜EC80 is used to maximize the assay's signal window and ability to detect NMDA receptor antagonists and negative allosteric modulators. A saturating concentration (10 μM) of glycine is also present in the assay. […] The fluorescent signal in the presence of test compounds is quantified and normalized to the signal defined by the appropriate control wells.

Chain of cloned human NR1/NR2B ion channels (Q13224 27-1484, other chains not shown): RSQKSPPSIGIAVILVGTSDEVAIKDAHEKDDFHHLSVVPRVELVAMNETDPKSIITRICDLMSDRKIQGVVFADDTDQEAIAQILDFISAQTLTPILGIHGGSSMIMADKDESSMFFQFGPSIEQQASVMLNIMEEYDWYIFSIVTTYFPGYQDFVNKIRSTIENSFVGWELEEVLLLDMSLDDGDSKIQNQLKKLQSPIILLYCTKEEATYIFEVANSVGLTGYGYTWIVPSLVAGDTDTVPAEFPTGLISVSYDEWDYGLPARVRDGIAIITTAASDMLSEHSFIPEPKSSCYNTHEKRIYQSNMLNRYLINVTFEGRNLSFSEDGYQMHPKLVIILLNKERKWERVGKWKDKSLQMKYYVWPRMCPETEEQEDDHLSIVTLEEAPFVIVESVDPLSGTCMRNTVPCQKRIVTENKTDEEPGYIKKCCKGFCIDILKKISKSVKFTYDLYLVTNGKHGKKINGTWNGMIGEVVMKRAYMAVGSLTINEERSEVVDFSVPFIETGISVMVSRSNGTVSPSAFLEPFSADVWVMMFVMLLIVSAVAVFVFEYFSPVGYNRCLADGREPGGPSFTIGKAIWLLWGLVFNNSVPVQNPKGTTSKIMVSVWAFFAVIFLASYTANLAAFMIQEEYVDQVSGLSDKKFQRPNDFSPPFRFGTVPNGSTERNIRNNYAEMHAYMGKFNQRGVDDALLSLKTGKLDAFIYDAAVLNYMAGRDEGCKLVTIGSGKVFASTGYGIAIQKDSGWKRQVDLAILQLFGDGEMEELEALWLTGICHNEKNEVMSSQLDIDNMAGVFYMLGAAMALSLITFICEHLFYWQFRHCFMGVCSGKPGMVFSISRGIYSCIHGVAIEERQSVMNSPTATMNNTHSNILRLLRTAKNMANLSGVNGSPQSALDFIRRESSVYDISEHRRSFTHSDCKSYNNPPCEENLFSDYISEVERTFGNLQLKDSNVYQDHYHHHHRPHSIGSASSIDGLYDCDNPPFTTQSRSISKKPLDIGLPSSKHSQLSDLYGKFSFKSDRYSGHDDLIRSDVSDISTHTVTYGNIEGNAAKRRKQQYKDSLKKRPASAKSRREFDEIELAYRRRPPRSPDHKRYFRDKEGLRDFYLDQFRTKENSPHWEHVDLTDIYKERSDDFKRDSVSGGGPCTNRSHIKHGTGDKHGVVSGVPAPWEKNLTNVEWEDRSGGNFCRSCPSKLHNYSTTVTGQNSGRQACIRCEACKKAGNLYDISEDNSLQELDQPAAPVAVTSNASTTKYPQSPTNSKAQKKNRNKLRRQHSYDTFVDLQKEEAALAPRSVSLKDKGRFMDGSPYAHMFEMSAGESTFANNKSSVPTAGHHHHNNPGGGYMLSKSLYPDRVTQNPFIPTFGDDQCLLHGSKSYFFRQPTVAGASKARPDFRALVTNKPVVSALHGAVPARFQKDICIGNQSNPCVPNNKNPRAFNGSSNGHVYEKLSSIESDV

Point of comparison: `O=C(Cn1cc(Cl)c2ncc(-c3cc(F)c(F)c(F)c3)cc21)N1CC(F)C1` [Example 39, 2-[3-Chloro-6-(3,4,5-trifluorophenyl)pyrrolo[3,2-b]pyridin-1-yl]-1-(3-fluoroazetidin-1-yl)ethanone], IC50 0.0316 µM. Against it:
- O=C(Cn1cc(Cl)c2ncc(-c3ccc(F)c(F)c3)cc21)N1CC(F)C1 [Example 30, 2-[3-Chloro-6-(3,4-difluorophenyl)pyrrolo[3,2-b]pyridin-1-yl]-1-(3-fluoroazetidin-1-yl)ethanone] — 1.6-fold lower, 0.02 µM
- Cc1cc2ncc(-c3ccc(F)cc3)cc2n1CC(=O)N1CCOCC1 [Example 31, 2-[6-(4-Fluorophenyl)-2-methyl-pyrrolo[3,2-b]pyridin-1-yl]-1-morpholino-ethanone] — 100-fold higher, 3.16 µM
- Cc1cn(CC(=O)NC2CC2)c2cc(-c3ccc(F)cc3)cnc12 [Example 32, N-Cyclopropyl-2-[6-(4-fluorophenyl)-3-methyl-pyrrolo[3,2-b]pyridin-1-yl]acetamide] — 13-fold higher, 0.398 µM
- Cc1cn(CC(=O)N2CCC2)c2cc(-c3ccc(F)cc3)cnc12 [Example 33, 1-(Azetidin-1-yl)-2-[6-(4-fluorophenyl)-3-methyl-pyrrolo[3,2-b]pyridin-1-yl]ethanone] — 2-fold higher, 0.0631 µM
- O=C(Cn1cc(Cl)c2ncc(-c3ccc(F)c(C(F)(F)F)c3)cc21)N1CC(F)C1 [Example 35, 2-[3-Chloro-6-[4-fluoro-3-(trifluoromethyl)phenyl]pyrrolo[3,2-b]pyridin-1-yl]-1-(3-fluoroazetidin-1-yl)ethanone] — 6.3-fold higher, 0.2 µM
- O=C(Cn1cc(Cl)c2ncc(-c3cccc(C(F)(F)F)c3)cc21)N1CC(F)(F)C1 [Example 36, 2-[3-Chloro-6-[3-(trifluoromethyl)phenyl]pyrrolo[3,2-b]pyridin-1-yl]-1-(3,3-difluoroazetidin-1-yl)ethanone] — 3.2-fold higher, 0.1 µM
- Cc1cc2ncc(-c3ccc(F)cc3)cc2n1CC(=O)N1CCCC1 [Example 37, 2-[6-(4-Fluorophenyl)-2-methyl-pyrrolo[3,2-b]pyridin-1-yl]-1-pyrrolidin-1-yl-ethanone] — 32-fold higher, 1 µM
- Cc1cc2ncc(-c3ccc(F)cc3)cc2n1CC(=O)NC1CC1 [Example 38, N-Cyclopropyl-2-[6-(4-fluorophenyl)-2-methyl-pyrrolo[3,2-b]pyridin-1-yl]acetamide] — 160-fold higher, 5.01 µM
- O=C(Cn1cc(Cl)c2ncc(-c3ccc(F)c(C(F)(F)F)c3)cc21)N1CC(F)(F)C1 [Example 40, 2-[3-Chloro-6-[4-fluoro-3-(trifluoromethyl)phenyl]pyrrolo[3,2-b]pyridin-1-yl]-1-(3,3-difluoroazetidin-1-yl)ethanone] — 16-fold higher, 0.501 µM
- Cc1cccc(-c2cnc3cc(C)n(CC(=O)N4CCC4)c3c2)c1 [Example 41, 1-(Azetidin-1-yl)-2-[2-methyl-6-(m-tolyl)pyrrolo[3,2-b]pyridin-1-yl]ethanone] — within 1.5-fold, 0.0251 µM
- Cc1cc2ncc(-c3ccccc3)cc2n1CC(=O)N1CCCC1 [Example 42, 2-(2-Methyl-6-phenyl-pyrrolo[3,2-b]pyridin-1-yl)-1-pyrrolidin-1-yl-ethanone] — 79-fold higher, 2.51 µM
- Cc1cccc(-c2cnc3cc(C)n(CC(=O)N4CCCC4)c3c2)c1 [Example 44, 2-[2-Methyl-6-(m-tolyl)pyrrolo[3,2-b]pyridin-1-yl]-1-pyrrolidin-1-yl-ethanone] — 6.3-fold higher, 0.2 µM
- Cc1cccc(-c2cnc3cc(C)n(CC(=O)N4CCOCC4)c3c2)c1 [Example 45, 2-[2-Methyl-6-(m-tolyl)pyrrolo[3,2-b]pyridin-1-yl]-1-morpholino-ethanone] — 16-fold higher, 0.501 µM
- Cc1cc2ncc(-c3ccc(F)cc3)cc2n1CC(=O)N1CCC1 [Example 46, 1-(Azetidin-1-yl)-2-[6-(4-fluorophenyl)-2-methyl-pyrrolo[3,2-b]pyridin-1-yl]ethanone] — 16-fold higher, 0.501 µM
- Cc1cc2ncc(-c3ccccc3)cc2n1CC(=O)N1CCC1 [Example 47, 1-(Azetidin-1-yl)-2-(2-methyl-6-phenyl-pyrrolo[3,2-b]pyridin-1-yl)ethanone] — 2.5-fold higher, 0.0794 µM
- O=C(Cn1cc(Cl)c2ncc(-c3cccc(C(F)(F)F)c3)cc21)N1CC(F)C1 [Example 48, 2-[3-Chloro-6-[3-(trifluoromethyl)phenyl]pyrrolo[3,2-b]pyridin-1-yl]-1-(3-fluoroazetidin-1-yl)ethanone] — 20-fold higher, 0.631 µM
- O=C(Cn1cc(Cl)c2ncc(-c3cc(F)c(F)c(F)c3)cc21)N1CC(F)(F)C1 [Example 49, 2-[3-Chloro-6-(3,4,5-trifluorophenyl)pyrrolo[3,2-b]pyridin-1-yl]-1-(3,3-difluoroazetidin-1-yl)ethanone] — 6.3-fold higher, 0.2 µM
- O=C(Cn1cc(Cl)c2ncc(-c3ccc(F)c(F)c3F)cc21)N1CC(F)(F)C1 [Example 50, 2-[3-Chloro-6-(2,3,4-trifluorophenyl)pyrrolo[3,2-b]pyridin-1-yl]-1-(3,3-difluoroazetidin-1-yl)ethanone] — within 1.5-fold, 0.0398 µM
- Cc1cccc(-c2cnc3cc(C)n(CC(=O)NC4CC4)c3c2)c1 [Example 51, N-Cyclopropyl-2-[2-methyl-6-(m-tolyl)pyrrolo[3,2-b]pyridin-1-yl]acetamide] — 2-fold higher, 0.0631 µM
- Cc1cc2ncc(-c3ccccc3)cc2n1CC(=O)N1CCOCC1 [Example 52, 2-(2-Methyl-6-phenyl-pyrrolo[3,2-b]pyridin-1-yl)-1-morpholino-ethanone] — 40-fold higher, 1.26 µM
- Cc1cccc(-c2cnc3c(Cl)cn(CC(=O)N4CC(F)(F)C4)c3c2)c1 [Example 53, 2-[3-Chloro-6-(m-tolyl)pyrrolo[3,2-b]pyridin-1-yl]-1-(3,3-difluoroazetidin-1-yl)ethanone] — 160-fold higher, 5.01 µM
- Cc1cccc(-c2cnc3c(Cl)cn(CC(=O)N4CC(F)C4)c3c2)c1 [Example 54, 2-[3-Chloro-6-(m-tolyl)pyrrolo[3,2-b]pyridin-1-yl]-1-(3-fluoroazetidin-1-yl)ethanone] — 2-fold higher, 0.0631 µM
- O=C(Cn1cc(Cl)c2ncc(-c3ccccc3)cc21)N1CC(F)(F)C1 [Example 55, 2-(3-Chloro-6-phenyl-pyrrolo[3,2-b]pyridin-1-yl)-1-(3,3-difluoroazetidin-1-yl)ethanone] — the same, 0.0316 µM
- O=C(Cn1cc(Cl)c2ncc(-c3ccccc3)cc21)N1CC(F)C1 [Example 56, 2-(3-Chloro-6-phenyl-pyrrolo[3,2-b]pyridin-1-yl)-1-(3-fluoroazetidin-1-yl)ethanone] — 1.6-fold higher, 0.0501 µM
- O=C(Cn1cc(Cl)c2ncc(-c3ccc(F)cc3)cc21)N1CC(F)(F)C1 [Example 57, 2-[3-Chloro-6-(4-fluorophenyl)pyrrolo[3,2-b]pyridin-1-yl]-1-(3,3-difluoroazetidin-1-yl)ethanone] — the same, 0.0316 µM
- O=C(Cn1cc(Cl)c2ncc(-c3ccc(F)cc3)cc21)N1CC(F)C1 [Example 58, 2-[3-Chloro-6-(4-fluorophenyl)pyrrolo[3,2-b]pyridin-1-yl]-1-(3-fluoroazetidin-1-yl)ethanone] — within 1.5-fold, 0.0251 µM
- Cc1cc(Cn2ccc3ncc(-c4ccc(F)cc4C)cc32)no1 [Example 59, 3-[[6-(4-Fluoro-2-methyl-phenyl)pyrrolo[3,2-b]pyridin-1-yl]methyl]-5-methyl-isoxazole] — within 1.5-fold, 0.0398 µM
- Cc1cc(Cn2ccc3ncc(-c4cccc(C(F)(F)F)c4)cc32)no1 [Example 60, 5-Methyl-3-[[6-[3-(trifluoromethyl)phenyl]pyrrolo[3,2-b]pyridin-1-yl]methyl]isoxazole] — 3.2-fold higher, 0.1 µM
- Cc1cccc(-c2cnc3ccn(Cc4cc(C)on4)c3c2)c1 [Example 61, 5-Methyl-3-[[6-(m-tolyl)pyrrolo[3,2-b]pyridin-1-yl]methyl]isoxazole trifluoroacetate salt] — 13-fold higher, 0.398 µM
- Cc1cc(Cn2ccc3ncc(-c4ccccc4C)cc32)no1 [Example 62, 5-Methyl-3-[[6-(o-tolyl)pyrrolo[3,2-b]pyridin-1-yl]methyl]isoxazole trifluoroacetate salt] — 4-fold higher, 0.126 µM
- Cc1cc(Cn2ccc3ncc(-c4ccc(F)c(C)c4)cc32)no1 [Example 63, 3-[[6-(4-Fluoro-3-methyl-phenyl)pyrrolo[3,2-b]pyridin-1-yl]methyl]-5-methyl-isoxazole trifluoroacetate salt] — 6.3-fold higher, 0.2 µM
- Cc1cc(Cn2ccc3ncc(-c4cc(F)cc(F)c4)cc32)no1 [Example 64, 3-[[6-(3,5-Difluorophenyl)pyrrolo[3,2-b]pyridin-1-yl]methyl]-5-methyl-isoxazole trifluoroacetate salt] — 2-fold higher, 0.0631 µM
- Cc1cc(Cn2ccc3ncc(-c4ccc(F)cc4)cc32)no1 [Example 65, 3-[[6-(4-Fluorophenyl)pyrrolo[3,2-b]pyridin-1-yl]methyl]-5-methyl-isoxazole trifluoroacetate salt] — 2.5-fold higher, 0.0794 µM
- Cc1cc(-c2cnc3ccn(CC(=O)NC4CCC4)c3c2)ccc1F [Example 66, N-Cyclobutyl-2-[6-(4-fluoro-3-methyl-phenyl)pyrrolo[3,2-b]pyridin-1-yl]acetamide trifluoroacetate salt] — 6.3-fold higher, 0.2 µM

In the case of `O=C(Cn1cc(Cl)c2ncc(-c3ccc(F)c(F)c3)cc21)N1CC(F)(F)C1` [Example 34, 2-[3-Chloro-6-(3,4-difluorophenyl)pyrrolo[3,2-b]pyridin-1-yl]-1-(3,3-difluoroazetidin-1-yl)ethanone], the pIC50 is reported as 7.8.

— patent US10377753B2, “Substituted 4-azaindoles and their use as GluN2B receptor modulators” (Janssen Pharmaceutica NV, priority 2015, dated 2019)
